Results from patent publication US20260132129A1 (Genesis Therapeutics, Inc., priority 2022, published 2026).

Biological target: T1, PI3Kα H1047R (T47D cells) (Homo sapiens, UniProt P42336, H1047R)
T1 construct: endogenous in cells; host or cells: T47D cells
Assay: PI3Kα cellular assay: pAKT HTRF in T47D cells after EGF stimulation
Format: cell-based
Details: for IC50: T47D cells (PI3Kα H1047R), pAKT S473 HTRF
Procedure, shortened: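 T47D cells (PIK3CA H1047R) serum-starved 16 h, then treated 1 h at 37 °C with compound (10,000 nM top, 3-fold steps to 0.5 nM). After 10 min stimulation with 20 ng/mL EGF, cells were lysed and pAKT measured by HTRF.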

[1] = selectivity of T47D (H1047R) over SKBR3 (WT) pAKT IC50
[2] = selectivity T47D (H1047R) over SKBR3 (WT), pAKT HTRF
[3] = 1 hr compound, 20 ng/ml EGF 10 min

T1 sequence (P42336 whole entry H1047R): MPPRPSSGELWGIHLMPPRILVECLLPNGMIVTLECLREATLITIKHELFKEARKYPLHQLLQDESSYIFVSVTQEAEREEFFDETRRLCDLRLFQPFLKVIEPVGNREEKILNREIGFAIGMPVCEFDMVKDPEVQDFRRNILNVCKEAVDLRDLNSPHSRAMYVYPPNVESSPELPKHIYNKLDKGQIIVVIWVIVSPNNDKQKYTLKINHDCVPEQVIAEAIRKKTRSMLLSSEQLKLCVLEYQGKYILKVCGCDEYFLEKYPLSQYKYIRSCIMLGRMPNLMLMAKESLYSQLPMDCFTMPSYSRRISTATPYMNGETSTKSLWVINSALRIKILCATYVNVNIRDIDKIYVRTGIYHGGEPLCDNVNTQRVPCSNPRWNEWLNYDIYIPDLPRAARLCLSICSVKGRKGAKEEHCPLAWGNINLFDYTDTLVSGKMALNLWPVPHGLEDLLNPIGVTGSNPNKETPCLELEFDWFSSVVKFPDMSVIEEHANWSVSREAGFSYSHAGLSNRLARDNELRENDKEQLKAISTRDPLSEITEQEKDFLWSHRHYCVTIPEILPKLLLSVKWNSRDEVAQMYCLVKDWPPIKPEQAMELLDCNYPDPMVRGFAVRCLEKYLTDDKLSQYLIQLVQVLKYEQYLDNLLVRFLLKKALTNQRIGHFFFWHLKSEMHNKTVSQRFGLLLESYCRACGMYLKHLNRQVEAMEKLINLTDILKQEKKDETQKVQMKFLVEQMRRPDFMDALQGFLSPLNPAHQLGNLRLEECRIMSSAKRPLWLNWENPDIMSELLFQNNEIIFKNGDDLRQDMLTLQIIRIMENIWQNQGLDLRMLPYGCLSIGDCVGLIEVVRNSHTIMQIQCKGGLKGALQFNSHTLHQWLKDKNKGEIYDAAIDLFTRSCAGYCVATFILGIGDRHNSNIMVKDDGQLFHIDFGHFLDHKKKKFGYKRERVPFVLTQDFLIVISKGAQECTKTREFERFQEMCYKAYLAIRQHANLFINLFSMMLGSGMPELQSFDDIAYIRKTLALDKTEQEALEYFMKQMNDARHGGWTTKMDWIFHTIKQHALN
T1 sequence (P27986 whole entry partner): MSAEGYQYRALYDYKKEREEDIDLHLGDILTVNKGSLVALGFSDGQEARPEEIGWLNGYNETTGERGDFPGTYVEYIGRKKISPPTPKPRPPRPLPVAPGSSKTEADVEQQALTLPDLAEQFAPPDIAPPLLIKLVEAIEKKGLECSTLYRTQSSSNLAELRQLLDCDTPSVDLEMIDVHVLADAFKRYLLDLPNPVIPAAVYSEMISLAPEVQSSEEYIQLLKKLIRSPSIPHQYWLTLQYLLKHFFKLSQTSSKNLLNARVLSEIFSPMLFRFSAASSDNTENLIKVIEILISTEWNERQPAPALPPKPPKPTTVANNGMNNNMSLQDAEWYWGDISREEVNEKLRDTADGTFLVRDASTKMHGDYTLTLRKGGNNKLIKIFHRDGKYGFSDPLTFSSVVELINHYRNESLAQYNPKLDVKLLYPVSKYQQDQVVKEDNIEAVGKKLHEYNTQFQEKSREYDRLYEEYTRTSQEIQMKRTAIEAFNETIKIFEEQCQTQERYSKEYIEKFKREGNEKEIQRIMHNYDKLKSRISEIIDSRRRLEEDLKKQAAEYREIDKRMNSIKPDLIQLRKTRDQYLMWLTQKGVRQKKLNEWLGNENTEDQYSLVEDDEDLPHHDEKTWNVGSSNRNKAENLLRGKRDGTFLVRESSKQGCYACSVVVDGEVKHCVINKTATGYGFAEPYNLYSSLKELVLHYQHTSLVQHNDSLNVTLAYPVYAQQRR

| Structure (SMILES) | IC50 (EGF stimulation) [nM] | T47D pAKT S473 HTRF IC50 (H1047R): T47D (H1047R) selectivity over SKBR3 (WT) [1] | T47D pAKT S473 HTRF IC50 (H1047R): T47D (H1047R) selectivity over SKBR3 (WT) [2] | IC50 [3] [nM] |
| --- | --- | --- | --- | --- |
| Cc1cc([C@@H](C)Nc2ccccc2C(=O)O)c2nc(-c3cnc4c(c3)c(C)nn4C)cc(=O)n2c1 (single isomer, unassigned) [Compound 696] | < 100 | A (A denotes >20-fold) | – | – |
| Cc1cc([C@@H](C)Nc2ccccc2C(=O)O)c2nc(-c3ccc4c(c3)c(N)nn4C)c(C)c(=O)n2c1 [Compound 785] | < 100 | A (A denotes >20-fold) | – | – |
| Cc1cc([C@@H](C)Nc2ccccc2C(=O)O)c2nc(-c3cccc(F)c3)c(C)c(=O)n2c1 [Compound 1073] | > 2000 | – | C (C denotes ≤5-fold) | – |
| Cc1cc([C@@H](C)Nc2ccccc2C(=O)NS(=O)(=O)N(C)C)c2nc(-c3cccc(F)c3)c(C)c(=O)n2c1 [Compound 1346] | – | – | C (C denotes ≤5-fold) | – |
| CCC(=O)N=S(C)(=O)c1ccccc1N[C@@H](C)c1cc(C)cn2c(=O)cc(N3CCOCC3)nc12 (some centres unmarked) [Compound 829] | > 2000 | C (C denotes ≤5-fold) | – | – |
| Cc1cc(C(C)Nc2ccccc2C(=O)O)c2nc(N3C[C@@H](C)O[C@@H](C)C3)c(C)c(=O)n2c1 (some centres unmarked) [Compound 915] | 100 to 500 | A (A denotes >20-fold) | – | – |
| Cc1cc([C@@H](C)Nc2ccccc2C(=O)O)c2nc(-c3ccc4c(c3)c(C3CC3)nn4C)cc(=O)n2c1 [Compound 748] | < 100 | A (A denotes >20-fold) | – | – |
| Cc1cc([C@@H](C)Nc2ccccc2C(=O)O)c2nc(N3C[C@@H]4CC(F)(F)C[C@@H]4C3)cc(=O)n2c1 (single isomer, unassigned) [Compound 582] | – | – | C (C denotes ≤5-fold) | > 2000 |
| Cc1cc([C@@H](C)Nc2ccccc2C(=O)O)c2nc(-c3ccc4c(c(N)nn4C)c3C)c(C)c(=O)n2c1 [Compound 787] | > 2000 | C (C denotes ≤5-fold) | – | – |
| Cc1cccc(-c2nc3c([C@H](C)Nc4ccccc4S(C)(=O)=O)cc(C)cn3c(=O)c2C)c1 [Compound 1320] | – | – | B (B denotes 20-fold≥value>5-fold) | – |
| Cc1cc([C@@H](C)Nc2ccccc2C(=O)O)c2nc(-c3cc4c(N)nn(C)c4cc3C)c(C)c(=O)n2c1 [Compound 732] | – | C (C denotes ≤5-fold) | – | – |
| Cc1cc([C@@H](C)Nc2ccccc2)c2nc(-c3cc(C)c4oc(=O)[nH]c4c3)cc(=O)n2c1 (single isomer, unassigned) [Compound 29] | – | – | C (C denotes ≤5-fold) | > 2000 |
| Cc1cc(C(C)Nc2ccccc2S(N)(=O)=O)c2nc(-c3cccc(F)c3)c(C)c(=O)n2c1 (centres unmarked) [Compound 1248] | 100 to 500 | – | A (A denotes >20-fold) | – |
| Cc1cc([C@@H](C)Nc2ccccc2C(=O)O)c2nc(N3CCOC[C@H]3C)cc(=O)n2c1 [Compound 296] | – | – | C (C denotes ≤5-fold) | > 2000 |
| Cc1cc(C(C)Nc2ccccc2C(=O)O)c2nc(-c3ccncc3)c(C)c(=O)n2c1 (centres unmarked) [Compound 1408, 2-((1-(3,7-dimethyl-4-oxo-2-(pyridin-4-yl)-4H-pyrido[1,2-a]pyrimidin-9-yl)ethyl)amino)benzoic acid] | < 100 | – | A (A denotes >20-fold) | – |
| Cc1cc([C@@H](C)Nc2ccccc2C(=O)O)c2nc(-c3ccc4c(C)cn(C)c4c3)c(C)c(=O)n2c1 [Compound 984] | < 100 | A (A denotes >20-fold) | – | – |
| Cc1cc([C@@H](C)Nc2ccccc2C(=O)O)c2nc(-c3c(C)ccc4c3cnn4C)cc(=O)n2c1 [Compound 816] | > 2000 | C (C denotes ≤5-fold) | – | – |
| Cc1cc(C(C)Nc2ccccc2C(=O)C(F)(F)F)c2nc(N3Cc4ccccc4C3)c(C)c(=O)n2c1 (centres unmarked) [Compound 926] | > 2000 | C (C denotes ≤5-fold) | – | – |
| Cc1cc([C@H](C)Nc2ccccc2C(=O)O)c2nc(N3CCO[C@H](C)C3)cc(=O)n2c1 [Compound 374] | – | – | A (A denotes >20-fold) | < 100 |
| Cc1cc([C@@H](C)Nc2ccnnc2C(=O)O)c2nc(N3CCOCC3)cc(=O)n2c1 [Compound 377] | – | – | C (C denotes ≤5-fold) | > 2000 |
| Cc1cc([C@@H](C)Oc2ccccc2C(N)=O)c2nc(N3CCOCC3)cc(=O)n2c1 [Compound 562] | – | – | C (C denotes ≤5-fold) | > 2000 |
| Cc1cc([C@@H](C)Nc2cccc3nonc23)c2nc(N3CCOCC3)cc(=O)n2c1 [Compound 802] | > 2000 | C (C denotes ≤5-fold) | – | – |
